Our source for the melting point values is a melting point compilation (Tetko et al.; mined from patent text by program, amines drawn as free bases though some values may be those of a salt).

Where only a bound is given, the exact number is not on record here.

In turn, `NS(=O)(=O)c1ccc(-c2cccc(-c3nc(-c4ccc(F)cc4)cc(C(F)(F)F)n3)c2)s1` gave a melting point of 228 °C.

For `CC1(C)[C@@H](CN2CCCCC2)CC[C@@]1(C)NCC(=O)N1C[C@@H](F)C[C@H]1C#N`, the melting point fell in the range of 100 to 103 °C.

The compound `C[C@@H]1O[C@](/C=C/C2CC2)(C(F)(F)F)c2c(ccc(F)c2F)NC1=O` (relative stereo) gave a melting point of 192 to 193 °C.

Consider `CC(Oc1ccc2nc(NC(=O)NCCN3CCN(C(=O)OC(C)(C)C)CC3)sc2c1)c1c(Cl)ccc(F)c1Cl` (stereo not given), for which the melting point is 87 °C.

For the compound `O=C1N(Cc2ccc3ccccc3c2)c2ccccc2N=C2CCCC12Cc1ccc2ccccc2c1` (stereo not given), the melting point is 191 to 193 °C.

For the compound `CCN(CC)C(=O)C(C)Oc1nc(-c2ccccc2)cc2ccccc12` (stereo not given), the melting point worked out at 117 °C.

Compound `c1ccc(N(c2ccccc2)c2ccc(-c3ccc(-c4ccnc(CNc5ccc6ccccc6c5)n4)cc3)cc2)cc1` displayed a melting point of 204 to 205 °C.

`CC1(C)CCCC(C)(C)N1CCO` showed a melting point of 93 to 94 °C.

Compound `C[C@@H](Nc1ncnc2[nH]c(-c3ccc(C(=O)O)cc3)cc12)c1ccccc1` had a melting point of over 350 °C.

`NCCCCC(OP(=O)(O)CCCCc1ccccc1)C(=O)N1CCCC1C(=O)O` (stereo not given) came in with a melting point of 160 to 175 °C.

`Cc1c(C=NO)c2ccccc2n1C(=O)c1ccc(Cl)cc1`: the melting point stood at 152 °C.

As for `Cc1nc(-c2ccc(C(F)(F)F)cc2)oc1COc1ccc(OCc2nn[nH]n2)cc1`, the melting point was found to be 156 °C.

`Cn1c(C=Cc2ccccc2)cnc1[N+](=O)[O-]` gave a melting point of 170 to 180 °C.

For `O=C(c1cocc1C(=O)N1CCCCC1)N1CCCCC1`, the melting point was in the range of 180 to 183 °C.

`O=c1[nH]nc2cc(C(c3c(F)ccc(F)c3F)S(=O)(=O)CCC(F)(F)F)c(Cl)cn12` (stereo not given) displayed a melting point of 209 to 211 °C.

`COc1nc(Cl)cc(I)c1C=O` showed a melting point of 120 to 124 °C.

As for `CC(C)NC(=O)c1ccc(-c2ccc3nnn(Cc4ccc5ncccc5c4)c3n2)cc1F`, the melting point is 177 to 179 °C.

`Cc1ccnc(-c2ccc(C)c(-c3ccccc3)n2)n1` registered a melting point of 105 °C.

As to `Cc1cccc2nc3c(=O)[nH][nH]c(=O)c3c(O)c12`, the melting point lay within 167 to 168 °C.

In the case of `O=C(Cl)CC(c1ccccc1)(c1ccccc1)c1ccccc1`, the melting point came to 182 °C.

With `Cc1c(-c2ccc(Cl)cc2)ccc2nc(C(=O)NC(Cc3ccc(OCc4ccccc4)cc3)C(=O)O)cn12` (stereo not given), the melting point was in the range of 263 to 264 °C.

For `CCCCCCN1CCC(n2nc(-c3c(-c4ccccc4)nn4ccccc34)ccc2=O)CC1`, the melting point was determined as 106 °C.

Compound `Cc1cc([N+](=O)[O-])cc(C)c1Oc1ccc(O)c(C(=O)c2ccc(F)cc2)c1` gave a melting point of 148 to 150 °C.

Consider `OCCc1c[nH]c2cc(Cl)c(Cl)cc12`, for which the melting point was 65 to 67 °C.

In turn, `CC12CC3OC3CC1CCC1C2CCC2(C)C(O)C(N3CCCCC3)CC12` (stereo not given) displayed a melting point of 153 to 165 °C.

In turn, `COc1ccccc1CCSc1c(O)cc(-c2ccccc2)oc1=O` had a melting point of 114 to 115 °C.

Turning to `N#CCN1C(=O)CC=C(C2(c3ccccc3)C=C3C=CC=CN3N2)N1C1=CCCCC1` (stereo not given), the melting point fell in the range of 74 to 76 °C.

As to `COc1ccnc2c1cc(C)n2Cc1ccccc1`, the melting point fell in the range of 129 to 131 °C.

`CCOC(=O)C1=C(c2cccs2)Nc2n[nH]cc2C1c1ccccc1Cl` (stereo not given) yielded a melting point of 200 °C.

Consider `CC(=O)CC(=O)NC1CCC(C)CC1` (stereo not given), for which the melting point stood at 111 °C.

Compound `CN1CCN(c2cccc(-c3ccc(C#N)c(=O)[nH]3)c2)CC1` displayed a melting point of 264 to 267 °C.

The compound `CN1c2c(oc(=O)n(-c3ncccn3)c2=O)-c2ccccc2S1(=O)=O` returned a melting point of 282 to 284 °C.

Take `O=C1CCC(c2ccccc2)(c2ccccc2)[C@@H]2CN(C(=O)Cc3ccccc3N3CCOCC3)C[C@H]12` (racemic): the melting point was 167 °C.

In turn, `O=C1OC2(CCN(C(=O)Nc3cnc(-c4cccc(O)c4)cn3)CC2)c2ccccc21` came in with a melting point of 257 to 259 °C.

`NCCSC(c1ccccc1)c1ccccc1` came in with a melting point of 74 °C.

`FC(F)(F)c1ccccc1NC(=S)N1CCc2c(sc3c2C(c2ccccc2Cl)=NCc2nnc(Cc4ccccc4)n2-3)C1` had a melting point of 239 to 240 °C.

Consider `CONS(=O)(=O)c1ccccc1Cl`, for which the melting point was 92.5 to 94 °C.

The compound `C=C1Cc2c(n(-c3ccccc3)c3ncccc3c2=O)O1` displayed a melting point of 259 to 261 °C.

Take `COc1ccc2c(c1)c1c3c(c(-c4c(Cl)cccc4Cl)cc1n2CCO)C(=O)NC3=O`: the melting point was 229 to 231 °C.

In turn, `COc1ccc(CNc2c([N+](=O)[O-])cc(Br)c3ccccc23)c(OC)c1` had a melting point of 104 to 105 °C.

Regarding `CCCCS(=O)(=O)On1nnc2ccc(Cl)cc21`, the melting point is 72 to 74 °C.

Compound `FC(F)(F)Oc1ccc(Cn2cnc3c(-c4ccco4)ncnc32)cc1` displayed a melting point of 146 to 147 °C.

Consider `COc1ccc2nc3ccc(C#N)cn3c(=O)c2c1`, for which the melting point is 284 to 285 °C.

For `CCOC(=O)CS(=O)(=O)CCC=C1SC=CS1`, the melting point was 103 to 104 °C.

For the compound `Fc1cc(N2CCNCC2)c2ncccc2c1`, the melting point turned out to be 103 °C.

In the case of `COC(=O)c1nc(-c2ccc(Br)c(OC)c2F)cc(NC(C)=O)c1Cl`, the melting point lay in the range of 164 to 165 °C.

Turning to `COc1ccc(NC(=O)CCCCC(=O)Cc2ccccc2)cc1`, the melting point was 131 to 132 °C.

Take `COc1ccc(S(=O)(=O)N2CCN(C(=O)c3ccc(Nc4ccnc5cc(C(F)(F)F)ccc45)cc3)CC2)cc1`: the melting point is 221 to 223 °C.

`NC(=O)C1CCn2c(cc3ccccc32)C1` (stereo not given) displayed a melting point of 165 to 168 °C.

For the compound `Cc1onc(NS(=O)(=O)c2cccs2)c1Br`, the melting point lay within 156 to 158 °C.

The compound `Cn1c(CC#N)ccc1C(=O)c1cccs1` gave a melting point of 132 to 133 °C.

In turn, `Cc1csc(-c2cc(-c3ccncc3)c3n(c2=O)CCCc2ccncc2-3)n1` displayed a melting point of 300 to 302 °C.

Turning to `Cc1sc(-c2ccc(F)cc2)nc1O`, the melting point was 173 to 174 °C.

`c1ccc(Oc2cnccc2N2CCNCC2)cc1` gave a melting point of 74 to 77 °C.

In the case of `Cc1cc(C(=O)Nc2ccc(C(=O)O)cc2)on1`, the melting point is over 300 °C.

For `O=C(O)CCC(=O)Oc1c(Cc2ccccc2)ccc2ccccc12`, the melting point is 140 °C.

In turn, `Cn1c(C(F)(F)F)cc(=O)n(-c2ccc3snc(C(C)(C)C(=O)NS(C)(=O)=O)c3c2)c1=O` returned a melting point of 264 to 265 °C.

With `COc1cc(OCC(F)(F)C(F)F)nc(Oc2cc(C(F)(F)F)nn2C)c1`, the melting point lay in the range of 73 to 74 °C.

Turning to `COC(=O)c1ccc(C#CC#C[Si](C)(C)C)cc1`, the melting point was 67 to 68 °C.

For the compound `C=CCCC1(C(F)(F)F)OC(=O)Nc2ccc(Cl)cc21` (racemic), the melting point lay in the range of 165 to 166 °C.

Turning to `CCCCCCCCNC(=O)N1CCC(c2cc(Cc3ccc(OC)cc3)nc(N)n2)CC1`, the melting point is 104 to 106 °C.

Regarding `CC(C)[C@H](NC(=O)N(C)Cc1nc2ccccc2[nH]1)C(=O)N[C@@H](Cc1ccccc1)C[C@H](O)[C@H](Cc1ccccc1)NC(=O)OCc1cccnc1`, the melting point fell in the range of 97 to 100 °C.

Turning to `O=c1c2ccoc2c2cccnc2n1-c1ccccc1`, the melting point was 245 to 247 °C.

The compound `COC(=O)c1ccccc1S(=O)(=O)NC(=O)Nc1cc(C)cc(C)n1` displayed a melting point of 181 to 182 °C.

Regarding `COC(=O)c1sc2c(c1OC(C)C)CN(C(=O)OC(C)(C)C)CC2`, the melting point is 76 to 81 °C.

Consider `CC(C)(C)CCN1C(=O)C(NC(=O)Oc2ccccc2)C(=O)N(c2ccccc2)c2ccccc21` (stereo not given), for which the melting point is 170 to 172 °C.

Compound `NC(=O)C(CCCC(NC(=O)OCc1ccccc1)C(=O)O)NC(=O)OCc1ccccc1` (stereo not given) returned a melting point of 145 to 150 °C.

In turn, `CCOC(=O)c1c[nH]c2nc(Nc3ccc(C)c(Cl)c3)nn2c1=O` came in with a melting point of over 340 °C.

`CCOC(=O)C(=CNC1CC1)C(=O)c1c(F)c(OC(F)F)c(F)c(F)c1[N+](=O)[O-]` had a melting point of 105 to 106 °C.

`CNC(=O)C(CC(=O)N(CC(=O)NO)CC(C)C)CC(C)C` (stereo not given) returned a melting point of 60.5 to 61.5 °C.

`CCCCN(Cc1ccc(-c2ccccc2-c2nnn[nH]2)cc1)c1ncccc1C(=O)O` gave a melting point of 203 to 205 °C.

Compound `CC(=O)Nc1ccc(-c2c(Cl)c(CCl)nc3sc4c(c23)CCN(Cc2ccccc2)C4)cc1` displayed a melting point of 203 to 204 °C.

For the compound `COC(=O)c1ccc(-c2nc(-c3cccc(OC(F)(F)F)c3)cs2)cc1`, the melting point is 132 to 134 °C.

In turn, `CC(C)c1ccc2c(c1)c(Sc1ccccc1C(C)C)c(CC(C)(C)C(=O)O)n2Cc1ccc(Cl)cc1` returned a melting point of 142 to 143 °C.

`CC(C)(C)OC(=O)NCCCCn1c(=O)c2cccc3ncc(c1=O)n32` displayed a melting point of 118 to 119 °C.

The compound `O=c1c(Br)c(N2CCOCC2)oc2ccccc12` showed a melting point of 145 to 146 °C.

The compound `CC(C)(C)OC(=O)NCCCCCC(=O)OCC1OC(n2cc(C=CBr)c(=O)[nH]c2=O)CC1O` (stereo not given) yielded a melting point of 204 to 205 °C.

Take `C=CCN(C(=O)NC(C)(C)C)c1nc(NC(=O)NC(C)(C)C)c2cc([N+](=O)[O-])ccc2n1`: the melting point was in the range of 105 to 106 °C.

Regarding `CC(CO)Nc1cc(Oc2nn(C)c(C(F)(F)F)c2Cl)ccc1[N+](=O)[O-]` (stereo not given), the melting point was in the range of 118 to 120 °C.

Turning to `COc1ccnc(C(=O)N[C@H]2COC[C@H](OCCC(C)C)[C@@H](OCCC(C)C)[C@H](C)OC2=O)c1O`, the melting point was in the range of 61 to 70 °C.

`Cc1c(C#N)sc2nc(-c3ccc(Cl)cc3)nc(N3CCN(C)CC3)c12` had a melting point of 209 to 210 °C.

As to `CCOC(=O)CCCCCc1oc(=O)[nH]c1-c1ccc(Cl)cc1`, the melting point was 113 to 114 °C.

`CS(=O)(=O)c1cccc(-c2cn(-c3nc(-c4ccc(C(F)(F)F)cc4)cc(C(F)(F)F)n3)cn2)c1` showed a melting point of 231 °C.

As to `CCCC(C)(O)C(=O)Nc1ccnc(C(=O)OC)c1` (stereo not given), the melting point stood at 122 °C.

In the case of `COc1ccc(-n2cc(CCCOc3c(CC(=O)O)cccc3OC)c(C(C)C)n2)nn1`, the melting point was in the range of 124 to 125 °C.

For orientation: melting point means the temperature, or range, at which the solid turns liquid.
